Tests used:
GluN1/2A receptors = biological target: T1, GluN1/2A receptors (UniProt P35439+Q12879); test: Whole-cell patch-clamp, HEK293T cells expressing recombinant GluN1/2A; format: cell-based; conditions: 100 μM CNS4 applied 4 s before and with 100 μM glutamate + 100 μM glycine; agonist alone −323.5 ± 82 pA; n = 4(3), p = .12
T1 construct: expressed in transfected cells; host or cells: HEK-293T
Method: Whole‐cell patch‐clamp electrophysiology studies were carried out in HEK‐293T cells expressing recombinant NMDA receptors that lack native functional NMDA receptors.[29], [30], [31] An equal quantity of (1 μg) cDNA for GluN1a, GluN2 subunits were co‐transfected 24‐48 h before patch‐clamp electrophysiology assay. […] Cells were carefully washed before performing experiments and were used for the electrophysiology experiments after 24 to 48 h incubation at 37°C with 5%CO2. The whole‐cell patch‐clamp electrophysiology assay was performed using semi‐automated patch‐clamp equipment, Port‐a‐Patch (Nanion Technologies GmbH). Following are the constituents of various solutions used for patch‐clamp electrophysiology: internal solution ([mM] NaCl 10, EGTA 20, CsF 110, HEPES 10), Mg‐free external (recording) solution ([mM] NaCl 140, KCl 4, CaCl2 2, HEPES 10, D‐GlucoseMonohydrate 5), and Mg‐free seal enhancer solution ([mM] NaCl 80, KCl 3, CaCl2 35, HEPES 10). Nanion NPC chips with […] resistance were used for the HEK‐293T cell recordings.
FIGURE 1 CNS4 sensitizes ambient concentration of agonists in GluN2 subunit dependent manner. […] Statistical significance was calculated from the Wilcoxon matched‐pairs signed rank test, except the comparison between 1/2A & 1/2AB CNS4 with no agonist data, which was done by unpaired t‐test. […]

GluN1/2B NMDA receptors = biological target: T2, GluN1/2B NMDA receptors (Rattus norvegicus, UniProt P35439+Q00960); test: TEVC agonist dose-response, Xenopus oocytes expressing 1/2B; format: cell-based; conditions: with 30 μM CNS4
T2 construct: SEP (super-ecliptic pHluorin; printed only as 'sep' in the plasmid name); host or cells: Xenopus oocytes (cRNA injection)
T2 sequence (Q00960 27-1482, other chains not shown): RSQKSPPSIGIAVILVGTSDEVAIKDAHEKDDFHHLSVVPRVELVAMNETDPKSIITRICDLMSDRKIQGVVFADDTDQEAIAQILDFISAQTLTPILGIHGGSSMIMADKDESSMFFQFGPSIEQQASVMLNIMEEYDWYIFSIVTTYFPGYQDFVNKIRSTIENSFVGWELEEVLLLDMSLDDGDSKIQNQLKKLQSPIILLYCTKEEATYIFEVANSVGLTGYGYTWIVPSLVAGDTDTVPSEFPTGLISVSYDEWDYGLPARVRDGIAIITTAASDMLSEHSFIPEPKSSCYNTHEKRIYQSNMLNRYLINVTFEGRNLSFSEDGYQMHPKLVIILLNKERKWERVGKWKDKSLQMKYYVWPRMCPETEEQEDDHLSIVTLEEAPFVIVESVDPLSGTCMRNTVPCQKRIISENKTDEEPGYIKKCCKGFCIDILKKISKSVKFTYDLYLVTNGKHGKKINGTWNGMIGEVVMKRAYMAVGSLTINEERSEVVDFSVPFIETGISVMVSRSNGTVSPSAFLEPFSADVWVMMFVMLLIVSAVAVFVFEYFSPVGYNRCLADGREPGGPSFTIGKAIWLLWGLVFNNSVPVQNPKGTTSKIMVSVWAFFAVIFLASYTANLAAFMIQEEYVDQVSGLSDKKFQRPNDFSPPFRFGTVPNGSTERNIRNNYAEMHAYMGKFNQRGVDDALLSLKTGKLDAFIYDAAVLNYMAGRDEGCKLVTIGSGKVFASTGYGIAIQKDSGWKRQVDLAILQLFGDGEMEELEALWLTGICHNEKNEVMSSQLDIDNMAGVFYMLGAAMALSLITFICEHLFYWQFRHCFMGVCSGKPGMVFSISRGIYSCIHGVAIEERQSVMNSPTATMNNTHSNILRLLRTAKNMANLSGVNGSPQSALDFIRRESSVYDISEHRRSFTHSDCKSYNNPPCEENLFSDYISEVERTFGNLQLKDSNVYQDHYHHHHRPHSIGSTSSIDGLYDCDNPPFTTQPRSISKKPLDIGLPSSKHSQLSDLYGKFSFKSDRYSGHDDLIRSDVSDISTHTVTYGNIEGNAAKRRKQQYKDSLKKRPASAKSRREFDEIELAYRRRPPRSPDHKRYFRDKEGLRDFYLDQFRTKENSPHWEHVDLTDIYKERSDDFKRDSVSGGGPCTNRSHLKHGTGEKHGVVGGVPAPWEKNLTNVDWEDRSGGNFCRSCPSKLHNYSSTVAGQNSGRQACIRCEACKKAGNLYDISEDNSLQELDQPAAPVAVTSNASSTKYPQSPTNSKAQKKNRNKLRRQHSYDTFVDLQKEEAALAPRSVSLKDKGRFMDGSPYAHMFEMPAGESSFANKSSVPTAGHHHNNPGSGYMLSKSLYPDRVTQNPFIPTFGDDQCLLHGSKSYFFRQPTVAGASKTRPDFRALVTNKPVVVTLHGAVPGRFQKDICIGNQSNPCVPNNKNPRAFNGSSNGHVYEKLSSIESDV
Text: NMDA receptor constructs: cDNA encoding the NMDA receptor1a subunit (GluN1a) was obtained from Dr. Nakanishi (Kyoto, Japan). cDNA encoding the GluN2B (pci_sepGluN2B), originally developed in the Malinow lab,[33] was purchased from Addgene (cat# 23998), Cambridge, MA. cDNA encoding the GluN2C and GluN2D were purchased from GenScript, New Jersey, USA. Mutated GluN1, 2A and 2B cDNA constructs capable of assembling as GluN1/2A/2B triheteromeric (1/2AB) receptors[34] were obtained from Dr. Paoletti (Laboratoire de Neurobiologie, CNRS). These constructs have been previously tested for 1/2AB receptor activity of GluN1/2A receptor‐selective potentiators.[35] […]
Electrophysiological responses were measured using a standard two‐microelectrode voltage‐clamp workstation (Warner Instruments model OC‐725C) designed to provide a fast clamp of large cells. […] Response magnitude was determined in Xenopus oocytes expressing different NMDA receptor subunits (GluN1/2A, 1/2B, 1/2C, 1/2D, and 1/2A/2B) by the steady plateau response elicited by bath application of different agonist concentrations. […] Statistical significance was determined at the overall alpha level 0.05, using appropriate statistical methods as described in all figure captions. […]

T1 sequence (Q12879 23-1464, other chains not shown): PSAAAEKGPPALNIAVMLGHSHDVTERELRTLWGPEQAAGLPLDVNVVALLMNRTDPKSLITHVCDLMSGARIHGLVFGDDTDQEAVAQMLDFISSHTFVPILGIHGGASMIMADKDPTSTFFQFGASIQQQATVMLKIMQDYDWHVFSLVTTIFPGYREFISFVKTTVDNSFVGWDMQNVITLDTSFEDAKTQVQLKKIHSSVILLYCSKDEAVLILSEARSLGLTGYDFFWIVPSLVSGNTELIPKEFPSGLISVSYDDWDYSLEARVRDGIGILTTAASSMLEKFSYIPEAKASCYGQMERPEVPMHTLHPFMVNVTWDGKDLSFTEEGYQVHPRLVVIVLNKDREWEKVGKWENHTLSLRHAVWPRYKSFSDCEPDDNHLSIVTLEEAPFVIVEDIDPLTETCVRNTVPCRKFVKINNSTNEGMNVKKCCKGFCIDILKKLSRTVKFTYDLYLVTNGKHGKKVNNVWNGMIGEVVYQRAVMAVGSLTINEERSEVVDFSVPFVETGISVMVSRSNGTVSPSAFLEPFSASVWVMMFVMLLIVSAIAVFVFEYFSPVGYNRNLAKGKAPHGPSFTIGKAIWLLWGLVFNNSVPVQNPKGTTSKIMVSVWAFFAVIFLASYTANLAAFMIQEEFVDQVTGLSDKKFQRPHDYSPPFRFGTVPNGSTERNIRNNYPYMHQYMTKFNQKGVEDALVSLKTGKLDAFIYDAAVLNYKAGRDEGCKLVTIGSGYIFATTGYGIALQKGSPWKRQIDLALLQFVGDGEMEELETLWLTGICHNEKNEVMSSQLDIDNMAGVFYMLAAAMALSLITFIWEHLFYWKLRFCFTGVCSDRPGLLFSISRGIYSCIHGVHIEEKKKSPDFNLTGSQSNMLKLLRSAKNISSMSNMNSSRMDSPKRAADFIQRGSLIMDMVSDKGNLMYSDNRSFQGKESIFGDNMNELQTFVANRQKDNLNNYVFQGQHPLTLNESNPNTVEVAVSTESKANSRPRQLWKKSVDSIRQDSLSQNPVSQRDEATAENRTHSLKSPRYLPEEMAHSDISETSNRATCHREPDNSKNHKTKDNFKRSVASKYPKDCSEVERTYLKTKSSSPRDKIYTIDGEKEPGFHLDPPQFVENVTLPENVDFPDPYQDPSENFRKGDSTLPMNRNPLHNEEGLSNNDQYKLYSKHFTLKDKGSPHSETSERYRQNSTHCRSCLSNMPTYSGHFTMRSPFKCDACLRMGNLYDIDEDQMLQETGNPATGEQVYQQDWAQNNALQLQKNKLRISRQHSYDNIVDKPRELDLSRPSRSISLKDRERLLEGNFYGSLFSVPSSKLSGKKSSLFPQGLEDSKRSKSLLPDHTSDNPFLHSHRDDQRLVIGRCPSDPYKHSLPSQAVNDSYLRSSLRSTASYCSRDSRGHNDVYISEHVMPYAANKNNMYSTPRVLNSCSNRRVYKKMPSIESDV

Structure (SMILES): O=C(NC(=S)N1CCCCC1c1cccnc1)c1ccc(F)cc1 (stereo not drawn) [CNS4]
- Peak current amplitude (GluN1/2A receptors): −469.3 ± 152 pA
- Glycine efficacy: relative fold change in current at highest glycine concentration (GluN1/2B NMDA receptors; 100 μM glutamate constant, relative to 1 μM glycine, p = .0303): 0.88 ± 0.07 fold
- Glutamate efficacy: relative fold change in current at highest glutamate concentration (GluN1/2B NMDA receptors; 100 μM glycine constant, relative to 1 μM glutamate, p = .5104): 4.27 ± 0.82 fold
